Assays:
Format in all cases: in vivo
Veronica (Vero) = test: Post-emergence herbicidal action (Example B2); parameters: key: 1-9 scale: 1 = total damage, 9 = no action; conditions: 1000 g of active compound per ha; post-emergence spray at 2- to 3-leaf stage; evaluated after 2 to 3 weeks; scale 1=total damage, 9=no action
Protocol: (§1) Monocotyledonous and dicotyledonous test plants are sown in standard soil in pots. When the test plants are at the 2- to 3-leaf stage, the test compounds, in the form of an aqueous suspension (prepared from a wettable powder (Example F3, b) according to WO 97/34485) or in the form of an emulsion (prepared from an emulsifiable concentrate (Example F1, c) according to WO 97/34485), are applied by spraying, in an optimum concentration (500 litres of water per ha). The test plants are then grown on in a greenhouse under optimum conditions. After a test duration of 2 to 3 weeks, the test is evaluated in accordance with a scale of nine ratings (1=total damage, 9=no action). Ratings of from 1 to 4 (especially from 1 to 3) indicate good to very good herbicidal action. Test plants. Panicum (Pani), Euphorbia (Euph), Abutilon (Abut), Amaranthus (Amara), Stellaria (Stell), Veronica (Vero).

Amaranthus (Amara) = test: Post-emergence herbicidal action (Example B2); parameters: key: 1=total damage; 9=no action; Ratings of from 1 to 4 (especially from 1 to 3) indicate good to very good herbicidal action; conditions: 1000 g of active compound per ha; post-emergence spray at 2- to 3-leaf stage; evaluated after 2 to 3 weeks; scale 1=total damage, 9=no action
Protocol: as §1

Euphorbia (Euph) [1] = test: Post-emergence herbicidal action (Example B2); parameters: key: 1=total damage; 9=no action; Ratings of from 1 to 4 (especially from 1 to 3) indicate good to very good herbicidal action; conditions: 1000 g of active compound per ha; post-emergence spray at 2- to 3-leaf stage; evaluated after 2 to 3 weeks; scale 1=total damage, 9=no action
Protocol: as §1

Abutilon (Abut) [2] = test: Post-emergence herbicidal action (Example B2); parameters: key: 1=total damage; 9=no action; Ratings of from 1 to 4 (especially from 1 to 3) indicate good to very good herbicidal action; conditions: 1000 g of active compound per ha; post-emergence spray at 2- to 3-leaf stage; evaluated after 2 to 3 weeks; scale 1=total damage, 9=no action
Protocol: as §1

Stellaria (Stell) [3] = test: Post-emergence herbicidal action (Example B2); parameters: key: 1=total damage; 9=no action; Ratings of from 1 to 4 (especially from 1 to 3) indicate good to very good herbicidal action; conditions: 1000 g of active compound per ha; post-emergence spray at 2- to 3-leaf stage; evaluated after 2 to 3 weeks; scale 1=total damage, 9=no action
Protocol: as §1

Panicum (Pani) [4] = test: Post-emergence herbicidal action (Example B2); parameters: key: 1=total damage; 9=no action; Ratings of from 1 to 4 (especially from 1 to 3) indicate good to very good herbicidal action; conditions: 1000 g of active compound per ha; post-emergence spray at 2- to 3-leaf stage; evaluated after 2 to 3 weeks; scale 1=total damage, 9=no action
Protocol: as §1

Digitaria (Digit) = test: Pre-emergence herbicidal action (Example B1); parameters: key: 1=total damage; 9=no action; Ratings of from 1 to 4 (especially from 1 to 3) indicate good to very good herbicidal action; conditions: 1000 g of active compound per ha; sprayed immediately after sowing; evaluated after 4 weeks; scale of nine ratings (1=total damage, 9=no action)
Protocol: (§2) Monocotyledonous and dicotyledonous test plants are sown in standard soil in pots. Immediately after sowing, the test compounds, in the form of an aqueous suspension (prepared from a wettable powder (Example F3, b) according to WO 97/34485) or in the form of an emulsion (prepared from an emulsifiable concentrate (Example F1, c) according to WO 97/34485), are applied by spraying, in an optimum concentration (500 litres of water per ha). The test plants are then grown in a greenhouse under optimum conditions. After a test duration of 4 weeks, the test is evaluated in accordance with a scale of nine ratings (1=total damage, 9=no action). Ratings of from 1 to 4 (especially from 1 to 3) indicate good to very good herbicidal action. Test plants: Panicum (Pani), Digitaria (Digit), Euphorbia (Euph), Sida, Abutilon (Abut), Amaranthus (Amar), Chenopodium (Cheno), Stellaria (Stell).

Sida = test: Pre-emergence herbicidal action (Example B1); parameters: key: 1=total damage; 9=no action; Ratings of from 1 to 4 (especially from 1 to 3) indicate good to very good herbicidal action; conditions: 1000 g of active compound per ha; sprayed immediately after sowing; evaluated after 4 weeks; scale of nine ratings (1=total damage, 9=no action)
Protocol: as §2

Euphorbia (Euph) [5] = test: Pre-emergence herbicidal action (Example B1); parameters: key: 1=total damage; 9=no action; Ratings of from 1 to 4 (especially from 1 to 3) indicate good to very good herbicidal action; conditions: 1000 g of active compound per ha; sprayed immediately after sowing; evaluated after 4 weeks; scale of nine ratings (1=total damage, 9=no action)
Protocol: as §2

Abutilon (Abut) [6] = test: Pre-emergence herbicidal action (Example B1); parameters: key: 1=total damage; 9=no action; Ratings of from 1 to 4 (especially from 1 to 3) indicate good to very good herbicidal action; conditions: 1000 g of active compound per ha; sprayed immediately after sowing; evaluated after 4 weeks; scale of nine ratings (1=total damage, 9=no action)
Protocol: as §2

Chenopodium (Cheno) = test: Pre-emergence herbicidal action (Example B1); parameters: key: 1=total damage; 9=no action; Ratings of from 1 to 4 (especially from 1 to 3) indicate good to very good herbicidal action; conditions: 1000 g of active compound per ha; sprayed immediately after sowing; evaluated after 4 weeks; scale of nine ratings (1=total damage, 9=no action)
Protocol: as §2

Stellaria (Stell) [7] = test: Pre-emergence herbicidal action (Example B1); parameters: key: 1=total damage; 9=no action; Ratings of from 1 to 4 (especially from 1 to 3) indicate good to very good herbicidal action; conditions: 1000 g of active compound per ha; sprayed immediately after sowing; evaluated after 4 weeks; scale of nine ratings (1=total damage, 9=no action)
Protocol: as §2

Amaranthus (Amar) = test: Pre-emergence herbicidal action (Example B1); parameters: key: 1=total damage; 9=no action; Ratings of from 1 to 4 (especially from 1 to 3) indicate good to very good herbicidal action; conditions: 1000 g of active compound per ha; sprayed immediately after sowing; evaluated after 4 weeks; scale of nine ratings (1=total damage, 9=no action)
Protocol: as §2

Panicum (Pani) [8] = test: Pre-emergence herbicidal action (Example B1); parameters: key: 1=total damage; 9=no action; Ratings of from 1 to 4 (especially from 1 to 3) indicate good to very good herbicidal action; conditions: 1000 g of active compound per ha; sprayed immediately after sowing; evaluated after 4 weeks; scale of nine ratings (1=total damage, 9=no action)
Protocol: as §2

Compound | Post-emergence herbicidal action rating, Vero (Veronica (Vero)) | Post-emergence herbicidal action rating, Amar (Amaranthus (Amara)) | Post-emergence herbicidal action rating, Euph (Euphorbia (Euph) [1]) | Post-emergence herbicidal action rating, Abut (Abutilon (Abut) [2]) | Post-emergence herbicidal action rating, Stell (Stellaria (Stell) [3]) | Post-emergence herbicidal action rating, Pani (Panicum (Pani) [4]) | Pre-emergence herbicidal action rating, Digit (Digitaria (Digit)) | Pre-emergence herbicidal action rating, Sida (Sida) | Pre-emergence herbicidal action rating, Euph (Euphorbia (Euph) [5]) | Pre-emergence herbicidal action rating, Abut (Abutilon (Abut) [6]) | Pre-emergence herbicidal action rating, Cheno (Chenopodium (Cheno)) | Pre-emergence herbicidal action rating, Stell (Stellaria (Stell) [7]) | Pre-emergence herbicidal action rating, Amar (Amaranthus (Amar)) | Pre-emergence herbicidal action rating, Pani (Panicum (Pani) [8])
COc1nc(C)ncc1OCC#Cc1cccc(CC#N)c1 [4.033] | 4 | 3 | 2 | 3 | 2 | 2 |  |  |  |  |  |  |  | 
N#CCc1cccc(C#CCOc2ncc(F)cn2)c1 [7.008] | 2 | 2 | 2 | 2 | 2 | 2 |  |  |  |  |  |  |  | 
N#CCc1cccc(C#CCOc2ncc(Cl)cn2)c1 [7.021] | 3 | 1 | 1 | 2 | 3 | 2 |  |  |  |  |  |  |  | 
N#CCc1cc(C#CCOc2ncc(F)cn2)ccc1F [7.027] | 4 | 2 | 2 | 4 | 3 | 1 |  |  |  |  |  |  |  | 
N#CCc1ccc(F)c(C#CCOc2ncc(Cl)cn2)c1 [7.028] | 2 | 1 | 1 |  | 1 |  |  |  |  |  |  |  |  | 
N#CCc1cc(C#CCOc2ncc(Cl)cn2)c(F)cc1F [7.031] | 2 | 2 | 3 | 3 | 3 | 2 |  |  |  |  |  |  |  | 
COc1nc(Cl)cnc1OCC#Cc1cccc(CC#N)c1 [Compound 1.041, {3-[3-(5-chloro-3-methoxy-pyrazin-2-yloxy)-prop-1-ynyl]-phenyl}-acetonitrile] | 2 | 2 | 1 | 2 | 2 | 2 | 1 | 1 | 1 | 1 | 1 | 1 | 1 | 1
COc1nccnc1OCC#Cc1cccc(CC#N)c1 [Compound 1.048] | 2 | 1 | 1 | 3 | 2 | 4 | 2 | 1 | 1 | 1 | 1 | 1 | 1 | 4
COc1cncnc1OCC#Cc1cccc(CC#N)c1 [Compound 5.025, {3-[3-(5-methoxy-pyrimidin-4-yloxy)-prop-1-ynyl]-phenyl}-acetonitrile] | 4 | 4 | 1 | 1 | 1 | 2 |  |  |  |  |  |  |  | 
N#CCc1cccc(C#CCOc2ncc(Br)cn2)c1 [Compound 7.006] | 5 | 2 | 1 | 3 | 4 | 5 |  |  | 1 | 2 | 1 | 1 |  | 2
N#CCc1cc(C#CCOc2ncc(Cl)cn2)ccc1F [Compound 7.022] | 2 | 1 | 1 |  | 3 | 2 | 1 | 1 | 3 | 1 | 3 | 1 | 1 | 1

Reference: US20050202973A1, “Aryl-alkyne compounds as herbicides” (priority 2002, published 2005)
